From article PMC12667509, “Inhibition of Macrophage ARID3A Alleviates Myocardial Ischemia‐Reperfusion Injury After Heart Transplantation by Reducing THBS1/CD47 Signaling‐Mediated Neutrophil Extracellular Traps Formation” (Advanced Science, 2025)

Target: T1, ARID3A (Homo sapiens, UniProt Q99856)
T1 construct: recombinant human protein immobilised on CM5 chip
T1 sequence (Q99856 1-593): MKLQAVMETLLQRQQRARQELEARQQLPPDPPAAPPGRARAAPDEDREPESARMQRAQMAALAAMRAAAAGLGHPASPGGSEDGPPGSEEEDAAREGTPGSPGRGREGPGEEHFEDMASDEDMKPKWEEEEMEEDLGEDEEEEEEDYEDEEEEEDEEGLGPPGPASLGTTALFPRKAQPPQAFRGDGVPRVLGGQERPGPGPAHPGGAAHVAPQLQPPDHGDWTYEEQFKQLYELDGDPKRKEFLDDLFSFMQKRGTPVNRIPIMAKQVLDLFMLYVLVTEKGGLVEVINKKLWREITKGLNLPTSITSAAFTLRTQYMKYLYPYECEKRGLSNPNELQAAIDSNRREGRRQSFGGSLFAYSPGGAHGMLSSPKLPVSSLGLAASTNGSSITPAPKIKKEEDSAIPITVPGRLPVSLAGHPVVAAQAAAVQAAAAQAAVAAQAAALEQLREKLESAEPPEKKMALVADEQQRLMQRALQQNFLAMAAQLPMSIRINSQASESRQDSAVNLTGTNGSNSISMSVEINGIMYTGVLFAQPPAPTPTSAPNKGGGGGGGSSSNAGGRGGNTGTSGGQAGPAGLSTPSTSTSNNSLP
Assay: SPR (Biacore T200, CM5 chip, kinetic analysis)
Format: binding

Kd: 7.64 µM
Compound: C=C(CC(=O)OCCCCCCCC)C(=O)O [4‐OI, 4‐octyl itaconate]
